Reference: patent publication US10745398B2, “2-(het)aryl-substituted fused heterocycle derivatives as pesticides” (Bayer CropScience Aktiengesellschaft, priority 2015, dated 2020)

What was measured:
[1] = log P (neutral) by HPLC on reversed-phase column (C 18), EEC Directive 79/831 Annex V.A8; assay type: physicochemical; settings: HPLC reversed-phase C 18, 55° C., neutral range pH 7.8, ammonium hydrogencarbonate/acetonitrile; for chromatographic logP: reversed-phase HPLC column (C 18)
[2] = tested on: engorged adult female cattle ticks (Boophilus microplus); experiment: Boophilus microplus - injection test; assay type: in vivo; settings: application rate 20 μg/animal, assessed after 7 days
Method: (§1) Solvent: dimethyl sulphoxide
To produce a suitable active compound preparation, 10 mg of active compound are mixed with 0.5 ml of solvent and the concentrate is diluted with solvent to the desired concentration.
1 μl of the active compound solution is injected into the abdomen of 5 engorged adult female cattle ticks (Boophilus microplus). The animals are transferred into dishes and kept in a climate-controlled room.
Efficacy is assessed after 7 days by laying of fertile eggs. Eggs which are not visibly fertile are stored in a climate-controlled cabinet until the larvae hatch after about 42 days. An efficacy of 100% means that none of the ticks has laid any fertile eggs; 0% means that all the eggs are fertile.

[3] = tested on: unfed adult cat fleas (Ctenocephalides felis); experiment: Ctenocephalides felis - oral test; assay type: in vivo; settings: application rate 100 ppm in citrated cattle blood, after 2 days
Method: as §1
To produce a suitable active compound preparation, 10 mg of active compound are mixed with 0.5 ml of dimethyl sulphoxide. Dilution with citrated cattle blood gives the desired concentration.
About 20 unfed adult cat fleas (Ctenocephalides felis) are placed into a chamber which is closed at the top and bottom with gauze. A metal cylinder whose bottom end is closed with parafilm is placed onto the chamber. The cylinder contains the blood/active compound preparation, which can be imbibed by the fleas through the parafilm membrane.
After 2 days, the kill in % is determined. 100% means that all of the fleas have been killed; 0% means that none of the fleas have been killed.

[4] = tested on: L1 larvae of the Australian sheep blowfly (Lucilia cuprina); experiment: Lucilia cuprina test; assay type: in vivo; settings: application rate 100 ppm, after 2 days
Method: as §1
(§2) To produce a suitable active compound preparation, 10 mg of active compound are mixed with 0.5 ml of dimethyl sulphoxide, and the concentrate is diluted with water to the desired concentration.
About 20 L1 larvae of the Australian sheep blowfly (Lucilia cuprina) are transferred into a test vessel containing minced horsemeat and the active compound preparation of the desired concentration.
After 2 days, the kill in % is determined. 100% means that all the larvae have been killed; 0% means that no larvae have been killed.

[5] = tested on: adult houseflies (Musca domestica); experiment: Musca domestica test; assay type: in vivo; settings: application rate 100 ppm, after 2 days
Method: as §1, §2
Vessels containing a sponge treated with sugar solution and the active compound preparation of the desired concentration are populated with 10 adult houseflies (Musca domestica).
After 2 days, the kill in % is determined. 100% means that all of the flies have been killed; 0% means that none of the flies have been killed.

[6] = tested on: green peach aphid (Myzus persicae); experiment: Myzus persicae - spray test; assay type: in vivo; settings: application rate 500 g/ha, Chinese cabbage leaf discs, after 5-6 days
Method: Solvent: 78 parts by weight of acetone • • 1.5 parts by weight of dimethylformamide
(§3) Emulsifier: alkylaryl polyglycol ether
(§4) To produce a suitable active compound preparation, 1 part by weight of active compound is dissolved with the stated parts by weight of solvent and made up with water containing an emulsifier concentration of 1000 ppm until the desired concentration is attained. To produce further test concentrations, the preparation is diluted with emulsifier-containing water.
Discs of Chinese cabbage leaves (Brassica pekinensis) infested by all stages of the green peach aphid (Myzus persicae) are sprayed with an active compound preparation of the desired concentration.
After 5-6 days, the efficacy in % is determined. 100% means that all the aphids have been killed; 0% means that no aphids have been killed.

[7] = tested on: larvae of the mustard beetle (Phaedon cochleariae); experiment: Phaedon cochleariae - spray test; assay type: in vivo; settings: application rate 500 g/ha, Chinese cabbage leaf discs, after 7 days
Method: (§5) Solvent: 78.0 parts by weight of acetone • • 1.5 parts by weight of dimethylformamide
as §3, §4
After 7 days, the efficacy in % is determined. 100% means that all the beetle larvae have been killed; 0% means that no beetle larvae have been killed.

[8] = tested on: caterpillars of the armyworm (Spodoptera frugiperda); experiment: Spodoptera frugiperda - spray test; assay type: in vivo; settings: application rate 500 g/ha, maize leaf discs, after 7 days
Method: as §5, §3, §4
Leaf discs of maize (Zea mays) are sprayed with an active compound preparation of the desired concentration and, after drying, populated with caterpillars of the armyworm (Spodoptera frugiperda).
After 7 days, the efficacy in % is determined. 100% means that all the caterpillars have been killed; 0% means that no caterpillar has been killed.

[9] = tested on: adult cat fleas (Ctenocephalides felis); experiment: Ctenocephalides felis - in vitro contact tests with adult cat fleas; assay type: in vivo; settings: application rate 5 μg/cm^2 (500 g/ha), after 48 h
Method: For the coating of the test tubes, 9 mg of active compound are first dissolved in 1 ml of acetone p.a. and then diluted to the desired concentration with acetone p.a. 250 μl of the solution are distributed homogeneously on the inner walls and the base of a 25 ml test tube by turning and rocking on an orbital shaker (rocking rotation at 30 rpm for 2 h). With 900 ppm active compound solution and internal surface 44.7 cm^2, given homogeneous distribution, an area-based dose of 5 μg/cm^2 is achieved.
After the solvent has evaporated off, the tubes are populated with 5-10 adult cat fleas (Ctenocephalides felis), sealed with a perforated plastic lid and incubated in a horizontal position at room temperature and ambient humidity. After 48 h, efficacy is determined. To this end, the test tubes are stood upright and the fleas are knocked to the base of the tube. Fleas which remain motionless at the base or move in an uncoordinated manner are considered to be dead or moribund.
100% efficacy means that all the fleas were dead or moribund. 0% efficacy means that no fleas were harmed.

[10] = tested on: southern root-knot nematode (Meloidogyne incognita); experiment: Meloidogyne incognita test; assay type: in vivo; settings: application rate 20 ppm, lettuce, after 14 days
Method: Solvent: 125.0 parts by weight of acetone
To produce a suitable preparation of active compound, 1 part by weight of active compound is mixed with the stated amount of solvent and the concentrate is diluted with water to the desired concentration.
Vessels are filled with sand, active compound solution, an egg/larvae suspension of the southern root-knot nematode (Meloidogyne incognita) and lettuce seeds. The lettuce seeds germinate and the plants develop. The galls develop on the roots.
After 14 days, the nematicidal efficacy in % is determined by the formation of galls. 100% means that no galls were found; 0% means that the number of galls on the treated plants corresponds to the untreated control.

[11] = tested on: greenhouse red spider mite (Tetranychus urticae); experiment: Tetranychus urticae - spray test, OP-resistant; assay type: in vivo; settings: application rate 500 g/ha, bean leaf discs, after 6 days
Method: as §5, §3, §4
Discs of bean leaves (Phaseolus vulgaris) infested with all stages of the greenhouse red spider mite (Tetranychus urticae) are sprayed with an active compound preparation of the desired concentration.
After 6 days, the efficacy in % is determined. 100% means that all the spider mites have been killed; 0% means that no spider mites have been killed.

With `CCS(=O)(=O)c1ccc(-n2ccn(-c3ccc(Br)cc3)c2=O)nc1-c1nc2cc(C(F)(F)F)ncc2n1C` [Example I-3] the “log P (neutral)” value [1] was “Example I-3: logP (neutral): 3.87 ^1H-NMR(400.0 MHz, d6-DMSO): δ =”, the “efficacy (no laying of fertile eggs)” value [2] was 95% and the “efficacy (kill in %)” value [3] was 100%. For the same compound, the “efficacy (kill in %)” value [4] was 100%, the “efficacy (kill in %)” value [5] was 90% and the “efficacy (aphids killed)” value [6] was 90%. The “efficacy (beetle larvae killed)” value [7] was 100% and the “efficacy (caterpillars killed)” value [8] was 100%.
With `CCS(=O)(=O)c1ccc(-n2ncn(-c3ccccc3F)c2=O)nc1-c1nc2cc(C(F)(F)F)ncc2n1C` [Example I-18] the “log P (neutral)” value [1] was “Example I-18: logP (neutral): 2.73: 1H-NMR(400.0 MHz, d6-DMSO): □ =”, the “efficacy (fleas dead or moribund)” value [9] was 100% and the “efficacy (no laying of fertile eggs)” value [2] was 95%. For the same compound, the “efficacy (kill in %)” value [3] was 100%, the “efficacy (kill in %)” value [4] was 100% and the “efficacy (kill in %)” value [5] was 85%. The “efficacy (aphids killed)” value [6] was 90%, the “efficacy (beetle larvae killed)” value [7] was 100% and the “efficacy (caterpillars killed)” value [8] was 100%.
With `CCS(=O)(=O)c1ccc(-n2ncn(-c3ccc(F)cc3)c2=O)nc1-c1nc2cc(C(F)(F)F)ncc2n1C` [Example I-8] the “log P (neutral)” value [1] was “Example I-8: logP (neutral): 2.75 ^1H-NMR(400.0 MHz, d6-DMSO): δ =”, the “nematicidal efficacy (formation of galls)” value (“nematicidal efficacy” for short) [10] was 90% and the “efficacy (aphids killed)” value [6] was 100%. The “efficacy (beetle larvae killed)” value [7] was 100% and the “efficacy (caterpillars killed)” value [8] was 100%.
With `CCS(=O)(=O)c1ccc(-n2ccc(-c3ncccc3Cl)n2)nc1-c1nc2cc(C(F)(F)F)ncc2n1C` [Example I-24] the “log P (neutral)” value [1] was “Example I-24: logP (neutral): 2.80 1H-NMR(400.0 MHz, d6-DMSO): □ =”, the “efficacy (fleas dead or moribund)” value [9] was 100% and the “efficacy (kill in %)” value [4] was 100%. For the same compound, the “efficacy (beetle larvae killed)” value [7] was 100% and the “efficacy (caterpillars killed)” value [8] was 100%.
With `CCS(=O)(=O)c1ccc(-n2cnn(-c3ccccc3F)c2=O)nc1-c1nc2cc(C(F)(F)F)ncc2n1C` [Example I-1] the “log P (neutral)” value [1] was “Example I-1: logP (neutral): 3.03 ^1H-NMR(400.0 MHz, d6-DMSO): δ =”, the “efficacy (fleas dead or moribund)” value [9] was 100% and the “efficacy (no laying of fertile eggs)” value [2] was 80%. For the same compound, the “efficacy (kill in %)” value [3] was 100%, the “efficacy (kill in %)” value [4] was 100% and the “efficacy (kill in %)” value [5] was 80%. For the same compound, the “efficacy (aphids killed)” value [6] was 90%, the “efficacy (beetle larvae killed)” value [7] was 100% and the “efficacy (caterpillars killed)” value [8] was 100%. For the same compound, the “efficacy (spider mites killed)” value [11] was 100%.
In the case of `CCS(=O)(=O)c1ccc(-n2ncn(-c3ccc(Cl)cc3)c2=O)nc1-c1nc2cc(C(F)(F)F)cnc2n1C` [Example I-33, 4-(4-Chlorophenyl)-2-{5-(ethylsulfonyl)-6-[3-methyl-6-(trifluoromethyl)-3H-imidazo[4,5-b]pyridin-2-yl]pyridin-2-yl}-2,4-dihydro-3H-1,2,4-triazol-3-one], the chromatographic logP [1] is reported as 3.52, the “nematicidal efficacy” value [10] is reported as 100% and the “efficacy (aphids killed)” value [6] is reported as 90%. The “efficacy (beetle larvae killed)” value [7] was 100%, the “efficacy (caterpillars killed)” value [8] was 100% and the “efficacy (spider mites killed)” value [11] was 90%.
For `CCS(=O)(=O)c1ccc(-n2ncn(-c3cccnc3)c2=O)nc1-c1nc2cc(C(F)(F)F)ncc2n1C` [Example I-17], the “log P (neutral)” value [1] was “Example I-17: logP (neutral): 2.06 1H-NMR(400.0 MHz, d6-DMSO): □ =”, the “efficacy (kill in %)” value [3] was 95% and the “efficacy (kill in %)” value [4] was 100%. For the same compound, the “nematicidal efficacy” value [10] was 100%, the “efficacy (aphids killed)” value [6] was 90% and the “efficacy (beetle larvae killed)” value [7] was 100%. The “efficacy (spider mites killed)” value [11] was 90%.
In the case of `CCS(=O)(=O)c1ccc(-n2ncn(-c3ccccc3)c2=O)nc1-c1nc2cc(C(F)(F)F)ncc2n1C` [Example I-15], the “log P (neutral)” value [1] is reported as “Example I-15: logP (neutral): 2.70 1H-NMR(400.0 MHz, d6-DMSO): □ =”, the “efficacy (fleas dead or moribund)” value [9] is reported as 100% and the “efficacy (no laying of fertile eggs)” value [2] is reported as 80%. The “efficacy (kill in %)” value [3] was 100%, the “efficacy (kill in %)” value [4] was 100% and the “nematicidal efficacy” value [10] was 100%. For the same compound, the “efficacy (beetle larvae killed)” value [7] was 100%, the “efficacy (caterpillars killed)” value [8] was 100% and the “efficacy (spider mites killed)” value [11] was 70%.
For `CCS(=O)(=O)c1ccc(-n2cnn(-c3ccccc3F)c2=O)nc1-c1nc2cc(C(F)(F)F)cnc2n1C` [Example I-32], the “log P (neutral)” value [1] was “Example I-32: logP (neutral): 3.52 1H-NMR(400.0 MHz, d6-DMSO): □ =”, the “efficacy (no laying of fertile eggs)” value [2] was 80% and the “efficacy (kill in %)” value [3] was 100%. For the same compound, the “efficacy (kill in %)” value [4] was 100%, the “efficacy (kill in %)” value [5] was 100% and the “efficacy (aphids killed)” value [6] was 90%. The “efficacy (beetle larvae killed)” value [7] was 100% and the “efficacy (caterpillars killed)” value [8] was 100%.
For `CCS(=O)(=O)c1ccc(-c2ccn(-c3cccnc3)n2)nc1-c1nc2cc(C(F)(F)F)ncc2n1C` [Example I-30, 2-{3-(Ethylsulfonyl)-6-[1-(pyridin-3-yl)-1H-pyrazol-3-yl]pyridin-2-yl}-3-methyl-6-(trifluoromethyl)-3H-imidazo[4,5-c]pyridine], the chromatographic logP [1] was 2.73, the “efficacy (kill in %)” value [4] was 100% and the “nematicidal efficacy” value [10] was 90%. For the same compound, the “efficacy (aphids killed)” value [6] was 100%, the “efficacy (beetle larvae killed)” value [7] was 100% and the “efficacy (caterpillars killed)” value [8] was 100%.
